# Data: PubChem BioAssay AID608 (Sanford-Burnham Center for Chemical Genomics, 2007)
# Activity calls are given as the source filed them. No rule for the calls is given here.
# Biological target: Peptidyl-prolyl cis-trans isomerase FKBP1A (Homo sapiens) (UniProt P62942)
# Experiment: small-molecule binding to FKBP12 – biophysical, NMR detection (AID 608)
# Settings: purified FKBP12
# Chain of Peptidyl-prolyl cis-trans isomerase FKBP1A (Homo sapiens) (P62942 whole entry, looked up): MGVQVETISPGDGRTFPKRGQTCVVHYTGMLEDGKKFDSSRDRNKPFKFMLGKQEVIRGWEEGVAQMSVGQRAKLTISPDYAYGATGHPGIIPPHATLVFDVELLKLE
row,SMILES,Kd
1,CN(C)C(=S)Nc1ccc([N+](=O)[O-])cc1,> 4 mM (inactive)
2,Nc1cc2ccccc2cn1,> 4 mM (inactive)
3,OCc1ccncc1,> 4 mM (inactive)
4,S=c1[nH]nc(-c2cccnc2)n1C1CCCCC1,> 4 mM (inactive)
5,O=C(Nn1cnnc1)c1ccccc1-c1ccccc1,> 4 mM (inactive)
6,O=C1C=CC(=O)N1c1ccc(N2CCOCC2)cc1,> 4 mM (inactive)
7,COc1cc2c(cc1OC)C(C)NCC2 (centres undefined),> 4 mM (inactive)
8,O=c1nc(NCc2ccco2)sc2ncccc12,> 4 mM (inactive)
9,O=C1CN(c2ccccc2)CC(=O)N1,> 4 mM (inactive)
10,Nc1nc(SCc2ccc3c(c2)OCO3)n[nH]1,> 4 mM (inactive)
11,O=S(=O)(NCc1ccco1)N1CCOCC1,> 4 mM (inactive)
12,NC(=O)NCCCC(N)C(=O)O (centres undefined),> 4 mM (inactive)
13,O=C(CC1NC(=O)NC1=O)Nc1ccccc1 (centres undefined),> 4 mM (inactive)
14,C=CC(C1=CC(=O)C=CC1=O)c1ccccc1 (centres undefined),> 4 mM (inactive)
15,O=c1[nH]cc(NCc2ccccc2)c(=O)[nH]1,> 4 mM (inactive)
16,Cc1cc(=O)n2ccc(CN3CCOCC3)c(O)c2n1,> 4 mM (inactive)
17,Cc1cc(NC(=O)c2ccc3c(c2)OCCO3)no1,> 4 mM (inactive)
18,OC(c1ccccc1)c1ccccn1 (centres undefined),> 4 mM (inactive)
19,COc1ccc(-c2noc(-c3ccco3)n2)cc1OC,> 4 mM (inactive)
20,Cc1c(C(=O)NC2=NCCS2)oc2ccccc12,> 4 mM (inactive)
21,O=c1n(-c2cccc(Cl)c2)c(=O)n2n1CCC2,> 4 mM (inactive)
22,CN(C)C(=O)Oc1cccc(-c2nnco2)c1,> 4 mM (inactive)
23,O=C(COc1ccccc1)N1CCc2ccccc2C1,> 4 mM (inactive)
24,O=S1(=O)CCC(N2CCCCC2)C1 (centres undefined),> 4 mM (inactive)
25,O=C(O[C@@H]1Cc2c(O)cc(O)cc2O[C@@H]1c1cc(O)c(O)c(O)c1)c1cc(O)c(O)c(O)c1,> 4 mM (inactive)

row,SMILES,Kd
1,Cc1cccc(NC(=O)NC(N)=O)c1,> 4 mM (inactive)
2,Clc1ncc2[nH]cnc2n1,> 4 mM (inactive)
3,c1csc(-c2nnc3ccccn23)c1,> 4 mM (inactive)
4,COC(=O)c1cc(-c2c[nH]c3ccccc23)n[nH]1,> 4 mM (inactive)
5,CCOc1ccc(C)cc1S(=O)(=O)n1ccnc1,> 4 mM (inactive)
6,CCOC(=O)C1CCNCC1,> 4 mM (inactive)
7,Nc1ncnc2c1ncn2CCN1CCCCC1,> 4 mM (inactive)
8,Cc1cc(C)n(-c2nc(N)cc(=O)[nH]2)n1,> 4 mM (inactive)
9,O=C(NC1=NCCS1)c1cccc(F)c1,> 4 mM (inactive)
10,O=C(O)C1CSC(c2ccccc2)N1 (centres undefined),> 4 mM (inactive)
11,Cc1ccc(-c2nc(N)n(C(=O)c3cccnc3)n2)cc1,> 4 mM (inactive)
12,Cc1nc(N)sc1C(=O)N/N=C/c1ccncc1,> 4 mM (inactive)
13,COCCn1c(SC)nc2c1c(=O)[nH]c(=O)n2C,> 4 mM (inactive)
14,O=C1CSC(=O)N1CN1CCCC1,> 4 mM (inactive)
15,Cc1cc(NS(=O)(=O)Cc2ccccc2)no1,> 4 mM (inactive)
16,Cc1c(N=Cc2ccco2)c(=O)n(-c2ccccc2)n1C,> 4 mM (inactive)
17,CC(C)c1ccccc1NC(=O)c1cnccn1,> 4 mM (inactive)
18,O=C1C=CC2=C3c4cc(O)c(O)cc4C[C@@]3(O)COC2=C1,> 4 mM (inactive)
19,COC(=O)C1Cc2ccccc2N1 (centres undefined),> 4 mM (inactive)
20,CCN1CCc2c(sc(N)c2C#N)C1,> 4 mM (inactive)
21,NNC(=O)c1ccccc1-n1cccc1,> 4 mM (inactive)
22,CC(=O)Nc1nnc(-c2ccco2)o1,> 4 mM (inactive)
23,COc1cc(O)ccc1C(C)=O,> 4 mM (inactive)
24,NC12CC3CC(C1)CC(C(=O)O)(C3)C2,> 4 mM (inactive)
25,CC(C)n1nnc2cc(C(=O)O)ccc21,> 4 mM (inactive)

row,SMILES,Kd
1,CC(C)(CO)NC(=O)c1ccccc1F,> 4 mM (inactive)
2,O=C1NC(=S)NC(=O)C1=Cc1ccccc1O,> 4 mM (inactive)
3,NC1CCN(Cc2ccccc2)CC1,> 4 mM (inactive)
4,COC(=O)c1ccc(/C=C2/NC(=S)NC2=O)cc1,> 4 mM (inactive)
5,CC(=O)CC1(O)C(=O)Nc2ccc(Br)cc21 (centres undefined),> 4 mM (inactive)
6,O=C(O)c1cccc(N2C(=O)C3CC=CCC3C2=O)c1 (centres undefined),> 4 mM (inactive)
7,CSc1ccc(C2NC(=O)CCC2[N+](=O)[O-])cc1 (centres undefined),> 4 mM (inactive)
8,Cn1nc(-c2cccs2)cc1N,> 4 mM (inactive)
9,COc1c(O)cc2c(-c3ccccc3)cc(=O)oc2c1OC,> 4 mM (inactive)
10,Cc1ccc(SCc2cc(=O)n3[nH]cnc3n2)cc1,> 4 mM (inactive)
11,Cc1cccc(C)c1NC(=O)CN1CCOCC1,> 4 mM (inactive)
12,CCn1nccc1C(=O)Nc1ccc(Cl)cc1Cl,> 4 mM (inactive)
13,COc1ccc(-c2cc(=O)c3cc(OC)ccc3o2)cc1,> 4 mM (inactive)
14,Cc1cccc(N2CCN(C(=O)c3ccncc3)CC2)c1C,> 4 mM (inactive)
15,Nc1ccc2nsnc2c1,> 4 mM (inactive)
16,C=CCCCCCCCCCCCC(O)CC(O)COC(C)=O (centres undefined) (tested in a mixture with another compound),> 4 mM (inactive)
17,COCc1cc(C)nc2sc(C(=O)OC)c(N)c12,> 4 mM (inactive)
18,Cn1c(=O)c2c(ncn2CCN)n(C)c1=O,> 4 mM (inactive)
19,O=C(O)Cn1cc(C(=O)C2CC2)c2ccccc21,> 4 mM (inactive)
20,CCCc1nc2ccccc2c2nc(N)nn12,> 4 mM (inactive)
21,Cc1occc1C(=O)N1CCN(S(C)(=O)=O)CC1,> 4 mM (inactive)
22,CC(=O)N1CCN(S(=O)(=O)c2ccccc2)CC1,> 4 mM (inactive)
23,O=C(O)CCC(=O)NCc1cccnc1,> 4 mM (inactive)
24,CCOCC(=O)NCc1n[nH]c(=O)c2ccccc12,> 4 mM (inactive)
25,CC(=O)Nc1ccc(-c2cn3ccsc3n2)cc1,> 4 mM (inactive)

row,SMILES,Kd
1,CCn1c(-c2c[nH]c3ccccc23)n[nH]c1=S,> 4 mM (inactive)
2,COc1cc2nc(N3CCNCC3)nc(N)c2cc1OC,> 4 mM (inactive)
3,O=CN1CCN(C(=O)c2ccco2)CC1,> 4 mM (inactive)
4,CNC(=O)c1ccc([N+](=O)[O-])cc1Cl,> 4 mM (inactive)
5,O=C(O)C1(O)C[C@@H](O)C(O)[C@H](O)C1 (some centres undefined),> 4 mM (inactive)
6,O=C(O)c1ccc(N2CCOCC2)cc1,> 4 mM (inactive)
7,COCc1cc(=O)oc2cc(O)c(Cl)cc12,> 4 mM (inactive)
8,CN1CCC2(CC1)CC1CC3C=CC1(CN2)O3 (centres undefined),> 4 mM (inactive)
9,CN1C(=O)c2ccc(N3CCCC3)cc2C1=O,> 4 mM (inactive)
10,O=C1c2ccccc2C(=O)N1/N=C/c1ccc[nH]1,> 4 mM (inactive)
11,CCNC(CC(=O)Nc1ccc(O)cc1)C(=O)O (centres undefined),> 4 mM (inactive)
12,NC(=O)CSc1ccccn1,> 4 mM (inactive)
13,NCc1csc(-c2cccs2)n1,> 4 mM (inactive)
14,COc1ccc(Cl)cc1NC(=O)C(N)=O,> 4 mM (inactive)
15,CNC(=O)Oc1ccc2c(c1)[C@]1(C)CCN(C)[C@@H]1N2C,> 4 mM (inactive)
16,Cn1cnc2ccc([N+](=O)[O-])cc2c1=O,> 4 mM (inactive)
17,O=C(Cc1cccs1)Nc1ccccn1,> 4 mM (inactive)
18,COc1ccc([C@@H]2CC(=O)c3c(O)cc(O[C@@H]4O[C@H](CO[C@H]5O[C@@H](C)[C@H](O)[C@@H](O)[C@H]5O)[C@@H](O)[C@H](O)[C@H]4O)cc3O2)cc1O,> 4 mM (inactive)
19,COc1ccc(C2(C)NC(=O)NC2=O)cc1 (centres undefined),> 4 mM (inactive)
20,CCCNC(=O)c1cnc2n(c1=O)CCS2,> 4 mM (inactive)
21,O=C1COc2ccccc2C(=O)N1,> 4 mM (inactive)
22,O=C(CSc1ccccc1)N1CCOCC1,0.0235 mM
23,NNc1ncnc2sccc12,> 4 mM (inactive)
24,Cc1cc(N(CN2CCCC2=O)C(=O)c2ccccc2)no1,> 4 mM (inactive)
25,CC(=O)OC[C@H]1O[C@@H](Oc2cc(OC(C)=O)c3c(=O)cc(-c4ccc(OC(C)=O)cc4)oc3c2)[C@H](OC(C)=O)[C@@H](OC(C)=O)[C@@H]1OC(C)=O,> 4 mM (inactive)

row,SMILES,Kd
1,CC1(O)CC2C(CC1O)C2(C)C (centres undefined),> 4 mM (inactive)
2,CSc1ccc(S(=O)(=O)N2CCCC2)cc1,> 4 mM (inactive)
3,NC(=O)CCn1ncc2ccccc21,> 4 mM (inactive)
4,Cc1nc2ccccc2c(=O)n1NC(=O)Nc1ccccc1,> 4 mM (inactive)
5,Cn1ccc(C(=O)NC(=S)NN2CCOCC2)n1,> 4 mM (inactive)
6,Oc1cc(O)cc(/C=C/c2ccccc2)c1,> 4 mM (inactive)
7,O=C(NCc1ccccc1)c1cnsn1,> 4 mM (inactive)
8,C/C1=C/CC(C)(C)/C=C/C/C(C)=C/CC1,> 4 mM (inactive)
9,Cc1cc(C)n(CCCC(=O)O)n1,> 4 mM (inactive)
10,O=C(O)CCC(=O)Nc1nccs1,> 4 mM (inactive)
11,CC(C)c1ccc(NC(=O)C(N)=O)cc1,> 4 mM (inactive)
12,O=S(=O)(Nc1ccc(Br)cc1)N1CCOCC1,inactive
13,O=c1[nH]cnc2nn(-c3ccccc3)nc12,> 4 mM (inactive)
14,Cc1ccc(=O)[nH]c1,> 4 mM (inactive)
15,c1ccc2c(c1)CN1CCCC1=N2,> 4 mM (inactive)
16,CC(CCC(=O)O)[C@H]1CCC2C3C(C[C@H](O)[C@@]21C)[C@@]1(C)CC[C@@H](O)C[C@H]1C[C@H]3O (some centres undefined),> 4 mM (inactive)
17,CC1(C)CN=C(Nc2nc3ccccc3s2)S1,> 4 mM (inactive)
18,O=C(O)CC1Sc2ccccc2NC1=O (centres undefined),> 4 mM (inactive)
19,O=C1CCCC(=O)N1c1ccc(O)cc1,> 4 mM (inactive)
20,N#CCCn1c(=O)oc2ccccc21,> 4 mM (inactive)
21,CCOCC(=O)N1CCc2ccccc21,> 4 mM (inactive)
22,Cc1cc(C(=O)Nc2sc(C)c(C)c2C#N)c(C)o1,> 4 mM (inactive)
23,Cn1c(-c2ccccc2F)n[nH]c1=S,> 4 mM (inactive)
24,O=C(Nc1ccon1)c1csc2c1CCCC2,> 4 mM (inactive)
